Measured values from patent publication US4851411A, “5-monoaryl as.-triazin-3-ones substituted in 2-position, and their use as medicaments” (Pierre Fabre Medicament, priority 1986, dated 1989).

Assay: Solubility
Format: physicochemical

SMILES	solubility in chloroform	solubility in ether	solubility in methylene chloride	solubility in water (water)	solubility in benzene	solubility in alcohols	solubility in aqueous dilute acids (aqueous dilute acids)	solubility in alcohols in the hot (in the hot)	solubility in chlorinated solvents	solubility in water in the hot (water, in the hot)	solubility in acetic acid
COc1ccc(-c2cnn(CCCCCN3CCN(c4cccc(Cl)c4)CC3)c(=O)n2)cc1 [Example 15, 2-N (ε-pentyl m-chlorophenyl piperazine) 3-oxo 5-p-methoxyphenyl as.-triazine]	Soluble	insoluble	Soluble	insoluble							
COc1ccc(-c2cnn(CCN3CCN(c4cccc(C(F)(F)F)c4)CC3)c(=O)n2)cc1 [Example 16, 2-β ethyl (m-trifluoromethylphenyl) piperazine 3-oxo 5-p-methoxyphenylas.-triazine]	Soluble	insoluble	Soluble	insoluble	poorly soluble						
Cc1ccc(-c2cnn(C(CCO)C(=O)O)c(=O)n2)cc1 (stereo not drawn) [Example 19, 2-[3-(3-carboxy 1-propanol)] 3-oxo 5-p-methylphenyl as.-triazine]	Poorly soluble	insoluble		insoluble	Poorly soluble	Poorly soluble					
Cc1ccc(-c2cnn(C3CCOC3=O)c(=O)n2)cc1 (stereo not drawn) [Example 20, 2-butyrolactone 3-oxo 5-p-methylphenyl as.-triazine]	Soluble	poorly soluble	Soluble	insoluble	poorly soluble						
CCOc1ccc(-c2cnn(CC(C)=O)c(=O)n2)cc1 [Example 24, 2-acetonyl 3-oxo 5-p-ethoxyphenyl as.-triazine]		insoluble		insoluble				soluble	Soluble		
COc1ccc(-c2cnn(CC(C)=O)c(=O)n2)c(OC)c1 [Example 25, 2-acetonyl 3-oxo 5-(2',4'-dimethoxy)phenyl as.-triazine]	Soluble	insoluble	Soluble	insoluble							
CC(=O)Cn1ncc(-c2cccs2)nc1=O [Example 26, 2-acetonyl 3-oxo 5-γ-thienyl as.-triazine]		insoluble		insoluble					Soluble		
CCOC(=O)CC(C(=O)OCC)n1ncc(-c2ccc(OC)cc2)nc1=O (stereo not drawn) [Example 27, 2-diethoxysuccinyl 3-oxo 5-p-methoxyphenyl as.-triazine]	Soluble			insoluble	Soluble	Soluble					
COc1ccc(-c2cnn(CCCCCN3CCC(O)CC3)c(=O)n2)cc1 [Example 28, N 2-[ε-pentyl (4-hydroxypiperidine)] 3-oxo 5-p-methoxyphenyl as.-triazine]	Soluble			insoluble		Soluble					
CCOC(=O)CCCn1ncc(-c2ccc(C)cc2)nc1=O [Example 35, 2-N-ethylbutyrate 3-oxo 5-p-methylphenyl as.-triazine]	Soluble			insoluble	Soluble	Soluble					

More lines, now with the values ahead:

solubility in chloroform	solubility in ether	solubility in methylene chloride	solubility in water (water)	solubility in benzene	solubility in alcohols	solubility in aqueous dilute acids (aqueous dilute acids)	solubility in alcohols in the hot (in the hot)	solubility in chlorinated solvents	solubility in water in the hot (water, in the hot)	solubility in acetic acid	SMILES
Soluble	insoluble	Soluble	insoluble	Soluble	Soluble	Soluble					COc1ccc(-c2cnn(CCCN(C)C)c(=O)n2)cc1 [Example 17, 2-γ dimethylaminopropyl 3-oxo 5-p-methoxyphenyl as.-triazine]
Poorly soluble		Poorly soluble	insoluble		rather soluble						COc1ccc(-c2cnn(C(CCO)C(=O)O)c(=O)n2)cc1 (stereo not drawn) [Example 18, 2-[3-(3-carboxy 1-propanol)] 3-oxo 5-p-methoxyphenyl as.-triazine]
insoluble	insoluble		insoluble				Soluble				Cc1ccc(C2C=NN(C(c3ccccc3)C(O)c3ccccc3)C(=O)N2)cc1 (stereo not drawn) [Example 29, N-2[α(1,2-diphenylethan 1-ol)] 3-oxo 4,5-dihydro 5-p-methylphenyl as.-triazine]
insoluble		Soluble	insoluble				Soluble				COc1ccc(-c2cnn(C(c3ccccc3)c3ccccc3)c(=O)n2)cc1 [Example 30, 2-N-diphenylmethyl 3-oxo 5-p-methoxyphenyl as.-triazine]
poorly soluble	insoluble	rather soluble		insoluble					Soluble		COc1ccc(-c2cnn(CCO)c(=O)n2)cc1 [Example 31, 2-ethanol 3-oxo 5-p-methoxyphenyl as.-triazine]
Soluble		Soluble	insoluble								COc1ccc(-c2cnn(CCCC(=O)c3ccc(F)cc3)c(=O)n2)cc1 [Example 33, 2-N-(γp-fluorobutyrophenone) 3-oxo 5-p-methoxyphenyl as.-triazine]
rather soluble	poorly soluble		insoluble				Soluble				COc1ccc(-c2cnn(C(C(=O)c3ccccc3)c3ccccc3)c(=O)n2)cc1 (stereo not drawn) [Example 34, 2-N-desyl 3-oxo 5-p-methoxyphenyl as.-triazine]
Soluble		Soluble	insoluble				Soluble				Cc1ccc(-c2cnn(C(C(=O)c3ccccc3)c3ccccc3)c(=O)n2)cc1 (stereo not drawn) [Example 36, 2-N-desyl 3-oxo 5-p-methylphenyl as.-triazine]
			insoluble							Soluble	COc1ccc(-c2cnn(CC(=O)c3ccccc3)c(=O)n2)cc1 [Example 37, 2-Phenacyl 3-oxo 5-p.methoxyphenyl as triazine]
			Insoluble		Insoluble					Soluble	COc1ccc(-c2cnn(CC(=O)c3ccc(C)cc3)c(=O)n2)cc1 [Example 38, 2-p.methylphenacyl 3-oxo 5-p.methoxyphenyl as triazine]
			Insoluble		Insoluble					Soluble	COc1ccc(-c2cnn(CC(=O)c3ccc(Cl)cc3Cl)c(=O)n2)cc1 [Example 39, 2-(dichloro-2,4 phenacyl) 3-oxo 5-p.methoxyphenyl as triazine]
			Insoluble		Insoluble					Insoluble	COc1ccc(C(=O)Cn2ncc(-c3ccc(OC)cc3)nc2=O)cc1 [Example 40, 2-p.methoxyphenacyl 3-oxo 5-p.methoxyphenyl as triazine]
